The values below come from US20040053972A1, “Medicinal compositions having improved absorbability” (priority 2000, published 2004).

With `Cc1ccccc1/C=C/c1nc(COc2ccc(CCCCn3ccnc3CCO)cc2)co1` [B12, 2-[1-[4-[4-[[2-[(E)-2-(2-Methylphenyl)ethenyl]-1,3-oxazol-4-yl]methoxy]phenyl]butyl]-1H-imidazol-2-yl]-1-ethanol], the melting point (as a rule, the temperature of the solid-liquid transition) is 91 to 93 °C.
For the compound `CCc1ccc(/C=C/c2nc(COc3ccc(CCCCn4ccnc4CCO)cc3)co2)cc1` [B13, 2-[1-[4-[4-[[2-[(E)-2-(4-Ethylphenyl)ethenyl]-1,3-oxazol-4-yl]methoxy]phenyl]butyl]-1H-imidazol-2-yl]-1-ethanol], the melting point was in the range of 94 to 95 °C.
In turn, `OCC(O)Cc1nccn1CCCc1cccc(OCc2coc(/C=C/c3ccc(C(F)(F)F)cc3)n2)c1` (centres unmarked) [B25, 3-[1-(3-{3-[(2-{(E)-2-[4-(Trifluoromethyl)phenyl]ethenyl}-1,3-oxazol-4-yl)methoxy]phenyl}propyl)-1H-imidazol-2-yl]-1,2-propanediol] yielded a melting point of 102 to 104 °C.
With `Cc1ccc(/C=C/c2nc(COc3ccc(CCCCn4ccnc4CCO)cc3)co2)cc1` [B10, 2-[1-[4-[4-[[2-[(E)-2-(4-Methylphenyl)ethenyl]-1,3-oxazol-4-yl]methoxy]phenyl]butyl]-1H-imidazol-2-yl]-1-ethanol] the figure was 108 to 109 °C.
The result for `OCCc1nccn1CCCCc1ccc(OCc2coc(/C=C/c3ccc(Cl)cc3)n2)cc1` [B15, 2-[1-[4-[4-[[2-[(E)-2-(4-Chlorophenyl)ethenyl]-1,3-oxazol-4-yl]methoxy]phenyl]butyl]-1H-imidazol-2-yl]-1-ethanol] reads 127 to 128 °C.
The compound `OCCc1nccn1CCCCc1ccc(OCc2coc(/C=C/c3ccc(F)cc3)n2)cc1` [B14, 2-(1-{4-[4-({2-[(E)-2-(4-Fluorophenyl)ethenyl]-1,3-oxazol-4-yl}methoxy)phenyl]butyl}-1H-imidazol-2-yl)-1-ethanol] had a melting point of 130 to 132 °C.
The result for `OCC(O)Cc1nccn1CCCc1cccc(OCc2coc(/C=C/c3ccc(F)cc3F)n2)c1` (centres unmarked) [B27, 3-(1-{3-[3-({2-[(E)-2-(2,4-Difluorophenyl)ethenyl]-1,3-oxazol-4-yl}methoxy)phenyl]propyl}-1H-imidazol-2-yl)-1,2-propanediol] reads 92 to 94 °C; that for `Fc1ccc(/C=C/c2nc(COc3ccc(CCCCn4ccnn4)cc3)co2)c(F)c1` [B7, 1-{4-[4-({2-[(E)-2-(2,4-Difluorophenyl)ethenyl]-1,3-oxazol-4-yl}methoxy)phenyl]butyl}-1H-1,2,3-triazole], 115 to 117 °C; that for `OCCc1nccn1CCCCc1ccc(OCc2coc(/C=C/c3ccc(Br)cc3)n2)cc1` [B16, 2-[1-[4-[4-[[2-[(E)-2-(4-Bromophenyl)ethenyl]-1,3-oxazol-4-yl]methoxy]phenyl]butyl]-1H-imidazol-2-yl]-1-ethanol], 149 to 150 °C.
The result for `OCC(O)Cc1nccn1CCCCc1ccc(OCc2coc(/C=C/c3c(F)cccc3F)n2)cc1` (centres unmarked) [B28, 3-[1-[4-[4-[[2-[(E)-2-(2,6-Difluorophenyl)ethenyl]-1,3-oxazol-4-yl]methoxy]phenyl]butyl]-1H-imidazol-2-yl]-1,2-propanediol] reads 123 to 125 °C; that for `Fc1ccc(/C=C/c2nc(COc3cccc(CCCn4ccnn4)c3)co2)c(F)c1` [B8, 1-{3-[3-({2-[(E)-2-(2,4-Difluorophenyl)ethenyl]-1,3-oxazol-4-yl}methoxy)phenyl]propyl}-1H-1,2,3-triazole], 89 to 90 °C.
